The values below come from US5736380A, “Maltose-trehalose converting enzyme, and preparation and uses thereof” (Kabushiki Kaisha Hayashibara Seibutsu Kagaku Kenkyujo, priority 1993, dated 1998).

“Also recorded” adds a separate entry of the source. Structures can show the parent of a compound that is named as a salt.

Assay [1] deals with T1, maltose-trehalose converting enzyme derived from Thermus aquaticus (ATCC 33923) (Thermus thermophilus, UniProt O06458).
T1 construct: The culture obtained in Experiment 15 was centrifuged to obtain an about 0.28 kg of wet cells; endogenous in cells; host or cells: Thermus aquaticus (ATCC 33923), enzyme purified from the disrupted wild-type cells
T1 sequence (O06458 1-963): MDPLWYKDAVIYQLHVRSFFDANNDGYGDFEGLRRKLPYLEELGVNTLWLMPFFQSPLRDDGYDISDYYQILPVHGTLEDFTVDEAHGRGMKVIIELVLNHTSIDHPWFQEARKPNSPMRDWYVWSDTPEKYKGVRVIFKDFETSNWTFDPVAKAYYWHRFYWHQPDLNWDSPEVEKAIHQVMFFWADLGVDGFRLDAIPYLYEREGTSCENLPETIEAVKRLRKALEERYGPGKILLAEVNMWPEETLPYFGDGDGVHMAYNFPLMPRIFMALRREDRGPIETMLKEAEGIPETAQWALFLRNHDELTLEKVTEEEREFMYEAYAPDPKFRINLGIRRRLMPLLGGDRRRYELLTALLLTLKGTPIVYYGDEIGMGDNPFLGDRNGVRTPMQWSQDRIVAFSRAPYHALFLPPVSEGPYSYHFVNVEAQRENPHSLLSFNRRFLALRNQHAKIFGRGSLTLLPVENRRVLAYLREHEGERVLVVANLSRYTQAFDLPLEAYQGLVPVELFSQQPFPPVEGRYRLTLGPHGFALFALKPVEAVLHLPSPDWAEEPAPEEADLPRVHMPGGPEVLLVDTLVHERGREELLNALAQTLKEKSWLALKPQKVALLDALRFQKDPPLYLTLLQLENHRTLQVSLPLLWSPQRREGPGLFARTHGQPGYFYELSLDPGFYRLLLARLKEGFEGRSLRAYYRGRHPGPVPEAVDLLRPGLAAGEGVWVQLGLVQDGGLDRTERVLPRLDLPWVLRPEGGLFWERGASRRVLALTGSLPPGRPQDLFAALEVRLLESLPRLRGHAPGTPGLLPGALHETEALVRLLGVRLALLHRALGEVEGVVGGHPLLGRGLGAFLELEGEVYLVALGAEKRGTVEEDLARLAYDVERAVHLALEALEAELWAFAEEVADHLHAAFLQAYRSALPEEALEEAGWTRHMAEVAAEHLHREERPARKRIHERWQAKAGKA
Nature of the assay: Inhibition of enzyme activity. The note with it: one mM Cu^++ or Hg^++, 50 mM Tris-HCl buffer. In kind it is biochemical. The procedure: (§1) The activity of the present maltose-trehalose converting enzyme is assayed as follows: One ml of an enzyme solution is added to one ml of 20 w/v % maltose as a substrate in 10 mM phosphate buffer (pH 7.0), and the mixture solution is incubated at 25° C., 35° C. or 60° C. for 60 min, followed by the heating the solution at 100° C. for 10 min to suspend the enzymatic reaction. To the resultant reaction mixture is precisely diluted by 11-fold with 50 mM phosphate buffer (pH 7.5), and 0.4 ml of the diluted solution is admixed with 0.1 ml of a trehalase solution having one unit/ml of trehalase. The resultant solution is incubated at 45° C. for 120 min, followed by determining the amount of glucose by the glucose-oxidase method. As a control, by using trehalase and an enzyme solution, which were preheated at 100° C. for 10 min to inactivate the enzyme, the activity of the enzyme solution is assayed similarly as above. With the above assay, the content of trehalose, formed by the present maltose-trehalose converting enzyme, is determined based on the amount of glucose formed, and one unit activity of the enzyme is defined as the amount of enzyme which forms one μmole of trehalose per minute. As regards to the reaction temperature, it is set to 25° C. for the enzyme of a microorganism of the genus Pimelobacter; 35° C. for that of the genus Pseudomonas; and 60° C. for that of the genus Thermus.
Effects of temperature and pH on the activity of the present enzyme were studied in accordance with the method as used for assaying the enzyme activity. […] The thermal stability of the enzyme was determined by incubating it in 50 mM phosphate buffers (pH 7.0) in test tubes at different temperatures for 60 min, cooling the test tubes with cold water, and assaying the residual enzyme activity in each buffer. The pH stability of the enzyme was determined by incubating it in 50 mM phosphate buffers having different pHs at 60° C. for 60 min, adjusting the resultant buffers to pH 7.0, and assaying the residual enzyme activity in each buffer.

Assay [2] concerns the target maltose-trehalose converting enzyme derived from Pseudomonas putida H262 (Pseudomonas putida, UniProt Q88FN0). Nature of the assay: Inhibition of enzyme activity. In kind it is biochemical. The note with it: one mM Cu^++ or Hg^++, 50 mM Tris-HCl buffer. The protocol:
as §1, with “The resultant solution is incubated at 45° C. for 120 min, followed by determining the amount of glucose by the glucose-oxidase method.” left out, “With the above assay, the content of trehalose, formed by the present maltose-trehalose converting enzyme, is determined based on the amount of glucose formed, and one unit activity of the enzyme is defined as the amount of enzyme which forms one μmole of trehalose per minute.” left out
Effects of temperature and pH on the activity of the present enzyme were studied in accordance with the method as used for assaying the enzyme activity. The results were respectively shown in FIG. 5 (effect of temperature) and FIG. 6 (effect of pH). The optimum temperature of the enzyme was about […] when incubated at pH 7.0 for 60 min and the optimum pH was about 7.3-8.3 when incubated at 35° C. for 60 min. The thermal stability of the enzyme was determined by incubating it in containers with 50 mM phosphate buffers (pH 7.0) at different temperatures for 60 min, cooling the resultant buffers in the containers with cold water, and assaying the residual enzyme activity in each buffer. The pH stability of the enzyme was determined by incubating it in 50 mM phosphate buffers having different pHs at 35° C. for 60 min, adjusting the resultant buffers to pH 7.0, and assaying the residual enzyme activity in each buffer. The enzyme was stable up to a temperature of about 40° C. and stable at a pH of about 6.0-9.5. […]

Assay [3] has as its system maltose-trehalose converting enzyme. Nature of the assay: Inhibition of activity of the present enzyme. Format: biochemical, microorganisms. The note with it: one mM Cu^++, Hg^++ and Tris-HCl buffer. The procedure: as §1, with “The resultant solution is incubated at 45° C. for 120 min, followed by determining the amount of glucose by the glucose-oxidase method.” left out, “With the above assay, the content of trehalose, formed by the present maltose-trehalose converting enzyme, is determined based on the amount of glucose formed, and one unit activity of the enzyme is defined as the amount of enzyme which forms one μmole of trehalose per minute.” left out

Sequence of maltose-trehalose converting enzyme derived from Pseudomonas putida H262 (Q88FN0 entry or part of it): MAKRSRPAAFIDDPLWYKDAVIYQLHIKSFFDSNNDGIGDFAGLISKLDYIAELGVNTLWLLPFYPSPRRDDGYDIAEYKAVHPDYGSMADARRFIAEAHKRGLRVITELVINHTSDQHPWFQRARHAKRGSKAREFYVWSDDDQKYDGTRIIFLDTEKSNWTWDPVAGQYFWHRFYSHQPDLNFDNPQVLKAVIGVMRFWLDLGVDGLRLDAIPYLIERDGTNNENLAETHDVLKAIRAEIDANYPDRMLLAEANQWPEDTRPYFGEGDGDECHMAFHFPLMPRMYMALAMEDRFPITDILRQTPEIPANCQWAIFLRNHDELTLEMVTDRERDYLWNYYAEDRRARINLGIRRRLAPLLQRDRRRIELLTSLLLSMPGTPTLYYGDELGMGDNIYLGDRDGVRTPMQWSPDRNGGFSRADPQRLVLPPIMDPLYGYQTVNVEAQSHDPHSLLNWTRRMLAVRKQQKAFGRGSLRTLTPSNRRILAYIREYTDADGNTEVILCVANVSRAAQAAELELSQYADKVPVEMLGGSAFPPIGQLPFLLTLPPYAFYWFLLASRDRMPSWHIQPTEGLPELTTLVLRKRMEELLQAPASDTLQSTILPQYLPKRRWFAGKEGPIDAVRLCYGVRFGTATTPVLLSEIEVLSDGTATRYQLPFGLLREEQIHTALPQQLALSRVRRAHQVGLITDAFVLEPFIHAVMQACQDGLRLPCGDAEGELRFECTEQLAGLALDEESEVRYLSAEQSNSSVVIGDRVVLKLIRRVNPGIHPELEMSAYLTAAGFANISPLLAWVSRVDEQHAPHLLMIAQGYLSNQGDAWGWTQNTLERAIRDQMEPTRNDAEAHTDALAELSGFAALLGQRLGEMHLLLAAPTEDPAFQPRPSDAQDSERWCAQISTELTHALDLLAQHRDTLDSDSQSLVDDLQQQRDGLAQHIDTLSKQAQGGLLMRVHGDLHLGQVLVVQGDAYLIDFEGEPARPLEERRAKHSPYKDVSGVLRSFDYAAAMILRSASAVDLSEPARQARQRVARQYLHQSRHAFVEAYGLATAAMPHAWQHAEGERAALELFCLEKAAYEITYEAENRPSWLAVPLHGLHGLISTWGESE

In the case of `[Cu+2]` [Cu^++], the figures for the Inhibition of activity result in assay [1], in assay [2] and in assay [3] were “inhibited; also recorded: inhibitory”, “inhibited; also recorded: inhibitory” and “inhibited”, respectively.
Regarding `[Hg+2]` [Hg^++], the Inhibition of activity result is “inhibited; also recorded: inhibitory” in assay [1], “inhibited; also recorded: inhibitory” in assay [2] and “inhibited” in assay [3].
Take `NC(CO)(CO)CO` [Tris-HCl buffer]: the Inhibition of activity result in assay [1] was “inhibited; also recorded: inhibitory”; in assay [2], “inhibited; also recorded: inhibitory”; in assay [3] it was “inhibited”.
